Experimental data reported in US7453006B2, “Inositol derivatives for increasing chloride secretion and inhibiting inflammation” (Inologic, Inc., priority 2000, dated 2008).
Where “and” joins values, the source holds several entries; their conditions need not be identical. Equal values may be shown once. Entries after “also recorded” stand apart in the source; their conditions may differ.

What was measured:
T84 cells = assay: Colonic Epithelial Cell Assay (Isc across T84 monolayers, Ussing chambers); format: cell-based, human; conditions: for increase in short circuit current (Isc): T84 monolayers in Ussing chambers, differing concentrations (text: colonic and airway epithelial cells)
Protocol: Cl^− secretion in colonic epithelial cells was measured as short circuit current (Isc) across T84 monolayers grown to confluence on Snap-wells (Costar) and mounted in Ussing chambers equipped with voltage clamps (Physiologic Instruments, San Diego). Data was acquired and analyzed using AAcquire and Analyze@ software (Physiologic Instruments). T84 cells (passages 18-48) were maintained as described previously in McRoberts, J. A. et al., “Cyclic AMP and Ca^2+-activated K^+ transport pathway in the apical membrane of a human colonic epithelial cell line,” J. Biol. Chem. 260:14163-14172 (1985). After […] of incubation on Snap-wells, monolayers had formed tight junctions and were preincubated with […] Bt2D-myo-Ins(3,4,5,6)P4/AM for 30-min. prior to mounting. An extracellular concentration of 200 uM corresponds to an intracellular concentration of 4 uM (Vajanaphnich, et al., “Long-term uncoupling of chloride secretion from intracellular calcium levels by Ins(3,4,5,6)P4,” Nature 371:711-714 (1994)). […]

[1] = system: arachidonic acid-induced inflammation in mouse ears; assay: arachidonic acid-induced inflammation in mouse ears; format: in vivo; conditions: for Ear Thickness: 20 nanomoles/ear topical 30 min before arachidonic acid, measured 60 min after arachidonic acid, control 56.5 ± 1.57
Protocol: Arachidonic Acid (Nu-Chek, Elysian, Minn. 56028); Indomethacin (stock=12.5 mg/mL acetone). Prednisolone (Sigma Chem, P6004) 20 mM dissolved in acetone; Animals: Female Balb/c mice (B&K laboratories) and Swiss-Webster hybrid (B& K Laboratory, Kent, Wash.)
The right ear of each mouse was used for the test compound. Unless otherwise indicated each compound was adjusted to 20 mM by dilution into DMSO or DMSO/5% Pluronic F127 as indicated and 1 or 2 microliters were applied to the test ear. Thirty minutes after each compound was applied, 4 mg arachidonic acid was applied (4 μL/ear; 2 μL/side) to both ears of each mouse. Measurements of edema were taken 60 min after the application of arachidonic acid with microcalipers (Oditest, Scientific Supply and Equipment) unless otherwise indicated. The results are shown in FIG. 15 as millimeters×10^−2 measured at the thickest point of each ear. Control measurements were performed on ears that were only treated with arachidonic acid.
Response to prednisolone (20 μL of 20 mM/ear; 10 μl/side) added 3 hrs prior 20′ to arachidonic acid or indomethacin (5 μg/ear) added 30 min prior to test compounds was determined. The results are shown in Table A, where the anti-inflammatory/inflammatory effects of 20 nanomoles/ear of the indicated compounds were tested as described in Methods. Each plus represents a change from control (arachidonic acid alone) of 2.5 mm×10^−2. Effects were compared with those of Indomethacin (400 nmols/ear).
Acute inflammation: Membrane permeant inositol polyphosphate analogs were administered topically and tested for inhibition of inflammatory symptoms induced by arachidonic acid on the ear of Swiss Webster mice.

[2] = system: CF Human Nasal Epithelial (CFHNE) cells; assay: Cystic Fibrosis Human Nasal Epithelial Cell Assay (Isc, Ussing chambers); format: cell-based
Protocol: CF Human Nasal Epithelial (CFHNE) Cell Isolation and Proliferation
Nasal Polyps were surgically obtained from a CF patient at Children's Hospital (Seattle, Wash.), transported on ice in a sterile container containing a 1:1 mixture of Dulbecco's modification of minimum essential medium Eagle and Ham's F-12 nutrient medium (DMEM/F-12) (Irvine Scientific, Santa Ana, Calif.) supplemented with 100 U/mL penicillin, 0.1 mg/mL streptomycin, 10 mM HEPES, and 2 mM L-glutamine. The tissue samples were aseptically removed from the transport medium and washed (repeated 5 times) by suspending in 40 mL of Joklik's modification of minimum essential medium Eagle (JMEM) at 4° C., and centrifuging at 500 rpm. The supernatant was aspirated and discarded. The tissue was then transferred to JMEM containing 200 U/mL penicillin, 0.2 mg/mL streptomycin, 0.1 mg/mL gentamycin sulfate (Clonetics, San Diego, Calif.), and 0.1 μg/mL amphotericin-B (Clonetics), and 0.1% Protease, washed an additional two times, suspended in […] in a 10 cm tissue culture dish, and incubated at 4° C. for 24 hours. The tissue samples were then gently triturated, the connective tissue aseptically removed, and the remaining cell suspension centrifuged at 1000 rpm. The supernatant was aspirated and the pellet was resuspended in 10 mL proliferation media, consisting of Keratinocyte-Serum Free Medium (KSFM) (Gibco-BRL, Grand Island, N.Y.) containing 5 ng/ml EGF (Gibco), 50 μg/mL BPE (Gibco), 5 μg/mL insulin, 5 μg/mL transferrin, 5 μg/ml sodium selenite, 10 nM 3,3′,5-triiodo-L-thyronine, 200 nM hydrocortisone, 100 U/mL penicillin, 0.1 mg/mL streptomycin, and 2 mM L-glutamine. The cell suspension was transferred to 2.10 cm tissue culture dishes coated with 3 μg/cm^2 rat-tail collagen (Type I) (Becton-Dickinson, Bedford, Mass.), incubated at 37° C. in an humidified atmosphere of 5% CO2 and 95% air. The cells were allowed to grow for 6 days (˜70% confluence) with the media being replaced with fresh media every other day. The cells were then trypsinized using 0.025% trypsin-EDTA for 5 min. The cell suspension was collected, the trypsin deactivated with 10% Fetal Bovine Serum, and centrifuged at 1000 rpm for 5 min. The cells were then counted using an hemocytometer with a yield of 3×10^6 cells per dish. The supernatant was aspirated and the cells were resuspended in KSFM and plated at a density of 10^4 cells/cm^2.
CFHNE Cell Ussing Chamber Preparation
The CFHNE cells were prepared for Ussing Chamber studies using Snapwell permeable supports (0.4 μm pore size) (Corning Costar, Cambridge, Mass.) coated with 3 μg/cm^2 rat-tail collagen (type 1). Cells were plated at 9×10^3 cells/cm^2 in KSFM. After 2 days, an air-liquid interface (ALI) was initiated in DMEM/F-12 containing: 2% Fetal Clone III (Hyclone, Logan, Utah), 2.5 μg/mL insulin, 2.5 μg/mL transferrin, 2.5 μg/mL sodium selenite, 20 nM hydrocortisone, 1.5 μM epinephrine, 50 μg/mL BPE, 1 nM 3,3′,5-triiodo-L-thyronine, 3.3 nM All-trans retinoic acid, 250 nM ethanolamine, 250 nM O-phosporylethanolamine, 100 U/mL penicillin, 0.1 mg/ml streptomycin, and 2 mM L-glutamine. The CFHNE monolayers reached maximal resistance (˜200 Ω/cm^2) 5-7 days after initiation of ALI. All media/reagents, unless otherwise specified, were supplied by Sigma Chemical Co., St. Louis, Mo.

[3] = topical, ear of Swiss Webster mice
[4] = 200 μM, 30 min preincubation, T84

How did the “basal Isc” value (T84 cells; 200 μM, acute treatment, T84) turn out when `CCCC(=O)OC1C(OP(=O)(OCOC(C)=O)OCOC(C)=O)C(OP(=O)(OCOC(C)=O)OCOC(C)=O)C(OP(=O)(OCOC(C)=O)OCOC(C)=O)C(OP(=O)(OCOC(C)=O)OCOC(C)=O)C1(CCC)OP(=O)(OCOC(C)=O)OCOC(C)=O` (racemic) [Compound D, rac-1-O-butyryl-2-C-propyl-myo-inositol 2,3,4,5,6-pentakisphosphate-dekakis(acetoxymethyl) ester] was run?
Its value is “small increase in basal Isc; also recorded: small acute effect increasing basal Isc”.

And the “subsequent carbachol-stimulated Isc” value (T84 cells; 200 μM, acute treatment, T84)?
Its value is “little effect”.

What about the “Ear Thickness” value [1] of the same compound?
The value was 44.0 ± 1.4 mm × 10^−2 and 44.2 ± 6.5 mm × 10^−2.

Which “Ear Thickness” value [1] does the source give for `CC(=O)OCOP(=O)(OCOC(C)=O)O[C@@H]1[C@@H](OP(=O)(OCOC(C)=O)OCOC(C)=O)[C@@H]2O[C@H]3CCC[C@@]2(O3)[C@H](OP(=O)(OCOC(C)=O)OCOC(C)=O)[C@H]1OP(=O)(OCOC(C)=O)OCOC(C)=O` [Tri-cyclo, (1S, 2R, 3S, 4R, 5S, 6S, 8R)-2,3,4,5-tetrakis[[bis-(acetoxymethoxy)phosphoryl]oxy]-7,12-dioxa-tricyclo-[6.3.1.0(1,6)]-dodecane] here?
Its value is 49.8 ± 2.5 mm × 10^−2.

Which “dose with inhibitory effect comparable in intensity to that of indomethacin (250 μg/animal)” value [1, 3] does the source give for `CCCC(=O)OC1C(OC(=O)CCC)C(OP(=O)(OCOC(C)=O)OCOC(C)=O)C(OP(=O)(OCOC(C)=O)OCOC(C)=O)C(OP(=O)(OCOC(C)=O)OCOC(C)=O)C1OP(=O)(OCOC(C)=O)OCOC(C)=O` [D-2,3-Di-O-butyryl-myo-inositol 1,4,5,6 tetrakisphosphate octakis(acetoxymethyl)ester, reference compound] here?
Its value is 20-30 μg/animal.

For “2,3,5-tri-O-butyryl-myo-inositol 1,4,6-trisphosphate hexakis-(acetoxymethyl) ester [TMX/AM]”, which “Ear Thickness” value [1] is on record?
Its value is 44.1 ± 2.3 mm × 10^−2.

With `Nc1ncnc2c1ncn2[C@@H]1O[C@H](COP(=O)(O)OP(=O)(O)OP(=O)(O)O)[C@@H](O)[C@H]1O` [ATP, adenosine triphosphate, reference compound] as the compound, how does the “Isc after ATP” value ([2]; ATP 10^−4 M, monolayers pretreated with vehicle) read?
The value was “transient increase in Isc followed by a prolonged decrease”.

With `CCCC(=O)OC12CCCOC1C(OP(=O)(OCOC(C)=O)OCOC(C)=O)C(OP(=O)(OCOC(C)=O)OCOC(C)=O)C(OP(=O)(OCOC(C)=O)OCOC(C)=O)C2OP(=O)(OCOC(C)=O)OCOC(C)=O` (centres unmarked) [Compound G, (4aa, 5a,6b,7a,8b,8aa)-5,6,7,8-tetrakis[[bis(acetoxymethoxy)-phosphoryl]oxy]-4a-butyryloxy-octahydro-chromen] as the compound, how does the “Isc response to carbachol” value (T84 cells; [4]) read?
Its value is “did not affect”.

What about the “Isc response to thapsigargin following carbachol” value (T84 cells; [4]) of the same compound?
The value was “reversed the inhibition of thapsigargin induced chloride secretion; also recorded: reverses the carbachol-mediated inhibition of thapsigargin-stimulated increase in Isc”.

Which results are given for “2,3,5-tri-O-butyryl-myo-inositol 1,4,6-trisphosphate hexakis(proprionoxymethyl)ester [TMX]”?
prolonged decrease in Isc after ATP (negative component of the ATP effect) ([2]; CFHNE monolayers exposed to TMX for 10 min, ATP 10^−4 M): attenuated; also recorded: reverse the negative component of the ATP effect on Isc; increase in short circuit current (Isc) (T84 cells): prolonged increase in Isc similar to cyclic AMP

How did the “decrease in Isc” value ([2]; amiloride 100 μM, apical compartment, in 19 of 23 monolayers) turn out when `N=C(N)NC(=O)c1nc(Cl)c(N)nc1N` [Amiloride, amiloride, reference compound] was run?
Its value is 1.01 μAmps/cm^2.

For `CCCC(=O)OC1C(OC(=O)CCC)C(OP(=O)(OCOC(=O)CC)OCOC(=O)CC)C(OP(=O)(OCOC(=O)CC)OCOC(=O)CC)C(OP(=O)(OCOC(=O)CC)OCOC(=O)CC)C1OP(=O)(OCOC(=O)CC)OCOC(=O)CC` [D-2,3-Di-O-butyryl-myo-inositol 1,4,5,6 tetrakisphosphate octakis(propionoxymethyl)ester], which “topical anti-inflammatory effects, values” [1, 3] is on record?
The value was 0.25-1.5 μg/animal.

How did the “increase in short circuit current (Isc)” value (T84 cells) turn out when `CCCC(=O)O[C@@H]1[C@H](OC(=O)CCC)[C@H](OP(=O)(OCOC(=O)CC)OCOC(=O)CC)[C@@H](OP(=O)(OCOC(=O)CC)OCOC(=O)CC)[C@H](OC(=O)CCC)[C@H]1OP(=O)(OCOC(=O)CC)OCOC(=O)CC` [ent-TMX, 1,2,5-tri-O-butyryl-myo-inositol 3,4,6-trisphosphate hexakis-(proprionoxymethyl) ester] was run?
The value was “inactive”.
